Among the data in patent US20250059180A1 (DONG WHA PHARM. CO., LTD., priority 2022, published 2025) are IC50 values, retold here.

For the first assay, the system named is Pfeiffer cells, lymphoma cells having EZH2 mutation (A677G). The assay is described as follows: Proliferation inhibition of cells of hematologic malignancies (CCK-8, 11 days). The assay is classed as cell-based. The note with it: 11 days culture, read-out: Cell proliferation inhibitory effect (IC50). As to the method:
The growth inhibitory activity of 1,3-benzodioxole derivative compounds represented by chemical formula I of the present invention against Pfeiffer cells, which are lymphoma cells having EZH2 mutation (A677G), was evaluated.
Pfeiffer was cultured using RPMI1640 containing 10% fetal bovine serum. The cells were inoculated into wells of a 96-well culture dish at 10,000 cells each, and cultured for 11 days after treating with the test material for each concentration. For 11 days, the test material was replaced every three to four days. After culturing, the cells were treated with a cell counting kit-8 (CCK-8) reagent for each well, absorbance was measured at 450 nm, and IC50 values for cell proliferation were obtained through curve fitting of non-linear regression in the GraphPad program (GraphPad Prism 5.0 software).
For `CSc1cc(C)[nH]c(=O)c1CNC(=O)c1cc(-c2ccc(N3C[C@@H](C)O[C@@H](C)C3)nc2)c2c(c1C)OC(C)([C@H]1CC[C@H](N(C)CC(F)(F)F)CC1)O2` (single isomer, unassigned) [Compound 108], the IC50 was no less than 100 nM.
The same measure, in the same setting: in the case of `CSc1cc(C)[nH]c(=O)c1CNC(=O)c1cc(-c2ccc(N3C[C@@H](C)O[C@@H](C)C3)nc2)c2c(c1C)OC(C)(C1CCN(CC(F)(F)F)CC1)O2` (single isomer, unassigned) [Compound 44] it was no more than 10 nM.
Still for that read-out and setting: in the case of `CCN1CCC(C2(C)Oc3c(-c4ccc(N5C[C@@H](C)O[C@@H](C)C5)nc4)cc(C(=O)NCc4c(SC)cc(C)[nH]c4=O)c(C)c3O2)CC1` (single isomer, unassigned) [Compound 50] it was no less than 100 nM; in that of `CCN1CCN(c2ncc(-c3cc(C(=O)NCc4c(SC)cc(C)[nH]c4=O)c(C)c4c3OC(C)(C3CCN(CC(F)(F)F)CC3)O4)cn2)CC1` (single isomer, unassigned) [Compound 77, 7-(2-(4-ethylpiperazin-1-yl)pyrimidin-5-yl)-2,4-dimethyl-N-((6-methyl-4-(methylthio)-2-oxo-1,2-dihydropyridin-3-yl)methyl)-2-(1-(2,2,2-trifluoroethyl)piperidin-4-yl)benzo[d][1,3]dioxole-5-carboxamide], no less than 100 nM; in that of `CSc1cc(C)[nH]c(=O)c1CNC(=O)c1cc(-c2ccc(N3C[C@@H](C)O[C@@H](C)C3)nc2)c2c(c1C)OC(C)(C1CCN(CCCC(F)(F)F)CC1)O2` (single isomer, unassigned) [Compound 57], no more than 10 nM.
The same measure, in the same setting: the value for `CCN1CCC(C2(C)Oc3c(-c4ccc(N5CCOCC5)nc4)cc(C(=O)NCc4c(SC)cc(C)[nH]c4=O)c(C)c3O2)CC1` (single isomer, unassigned) [Compound 67, 2-(1-ethylpiperidin-4-yl)-2,4-dimethyl-N-((6-methyl-4-(methylthio)-2-oxo-1,2-dihydropyridin-3-yl)methyl)-7-(6-morpholinopyridin-3-yl)benzo[d][1,3]dioxole-5-carboxamide] was no less than 100 nM.

The same assay, now with this note: Homo sapiens, Pfeiffer, 264 h, 11 days culture, read-out: Cell proliferation inhibitory effect (IC50).
`CCCOCCN(C)[C@H]1CC[C@H](C2(C)Oc3c(-c4ccc(N5C[C@@H](C)O[C@@H](C)C5)nc4)cc(C(=O)NCc4c(SC)cc(C)[nH]c4=O)c(C)c3O2)CC1` (stereo partly drawn) [Compound 30, 7-(6-((2S,6R)-2,6-dimethylmorpholino)pyridin-3-yl)-2,4-dimethyl-2-(trans-4-(methyl(2-propoxyethyl)amino)cyclohexyl)-N-((6-methyl-4-(methylthio)-2-oxo-1,2-dihydropyridin-3-yl)methyl)benzo[d][1,3]dioxole-5-carboxamide]: the IC50 is no more than 10 nM.
Still for that read-out and setting: in the case of `COCCN(C)[C@H]1CC[C@H](C2(C)Oc3c(-c4ccc(N5CCC(F)(F)CC5)nc4)cc(C(=O)NCc4c(SC)cc(C)[nH]c4=O)c(C)c3O2)CC1` (stereo partly drawn) [Compound 27, 7-(6-(4,4-difluoropiperidin-1-yl)pyridin-3-yl)-2-(trans-4-((2-methoxyethyl)(methyl)amino)cyclohexyl)-2,4-dimethyl-N-((6-methyl-4-(methylthio)-2-oxo-1,2-dihydropyridin-3-yl)methyl)benzo[d][1,3]dioxole-5-carboxamide] it was no more than 10 nM.
Still for that read-out and setting: in the case of `CSc1cc(C)[nH]c(=O)c1CNC(=O)c1cc(-c2cnc(N3C[C@@H](C)O[C@@H](C)C3)nc2)c2c(c1C)OC(C)(C1CCN(CC(F)(F)F)CC1)O2` (stereo partly drawn) [Compound 38, 7-(2-((2S,6R)-2,6-dimethylmorpholino)pyrimidin-5-yl)-2,4-dimethyl-N-((6-methyl-4-(methylthio)-2-oxo-1,2-dihydropyridin-3-yl)methyl)-2-(1-(2,2,2-trifluoroethyl)piperidin-4-yl)benzo[d][1,3]dioxole-5-carboxamide] it was no more than 10 nM; in that of `CSc1cc(C)[nH]c(=O)c1CNC(=O)c1cc(-c2ccc(N3C[C@@H](C)O[C@@H](C)C3)nc2)c2c(c1C)OC(C)([C@H]1CC[C@H](N3CC(OCC(F)F)C3)CC1)O2` (stereo partly drawn) [Compound 103, 2-(trans-4-(3-(2,2-difluoroethoxy)azetidin-1-yl)cyclohexyl)-7-(6-((2S,6R)-2,6-dimethylmorpholino)pyridin-3-yl)-2,4-dimethyl-N-((6-methyl-4-(methylthio)-2-oxo-1,2-dihydropyridin-3-yl)methyl)benzo[d][1,3]dioxole-5-carboxamide], no more than 10 nM; in that of `CSc1cc(C)[nH]c(=O)c1CNC(=O)c1cc(-c2ccc(N3CC(C)CC(C)C3)nc2)c2c(c1C)OC(C)(C1CCN(CC(F)(F)F)CC1)O2` (centres unmarked) [Compound 37, 7-(6-(3,5-dimethylpiperidin-1-yl)pyridin-3-yl)-2,4-dimethyl-N-((6-methyl-4-(methylthio)-2-oxo-1,2-dihydropyridin-3-yl)methyl)-2-(1-(2,2,2-trifluoroethyl)piperidin-4-yl)benzo[d][1,3]dioxole-5-carboxamide], 10 to 100 nM.
The same measure, in the same setting: the value for `CSc1cc(C)[nH]c(=O)c1CNC(=O)c1cc(-c2ccc3c(c2)OCO3)c2c(c1C)OC(C)(C1CCN(CC(F)F)CC1)O2` (centres unmarked) [Compound 95, 2-(1-(2,2-difluoroethyl)piperidin-4-yl)-2,7-dimethyl-N-((6-methyl-4-(methylthio)-2-oxo-1,2-dihydropyridin-3-yl)methyl)-[4,5′-bibenzo[d][1,3]dioxol]-6-carboxamide] was 10 to 100 nM; that for `CSc1cc(C)[nH]c(=O)c1CNC(=O)c1cc(-c2ccc(N3C[C@@H](C)O[C@@H](C)C3)nc2)c2c(c1C)OC(C)([C@H]1CC[C@H](N(C)C(=O)C(F)(F)F)CC1)O2` (stereo partly drawn) [Compound 115, 7-(6-((2S,6R)-2,6-dimethylmorpholino)pyridin-3-yl)-2,4-dimethyl-N-((6-methyl-4-(methylthio)-2-oxo-1,2-dihydropyridin-3-yl)methyl)-2-(trans-4-(2,2,2-trifluoro-N-methylacetamido)cyclohexyl)benzo[d][1,3]dioxole-5-carboxamide] was 10 to 100 nM; that for `COc1ccc(F)cc1-c1cc(C(=O)NCc2c(SC)cc(C)[nH]c2=O)c(C)c2c1OC(C)([C@H]1CC[C@H](N(C)C)CC1)O2` (stereo partly drawn) [Compound 12, 2-(trans-4-(dimethylamino)cyclohexyl)-7-(5-fluoro-2-methoxyphenyl)-2,4-dimethyl-N-((6-methyl-4-(methylthio)-2-oxo-1,2-dihydropyridin-3-yl)methyl)benzo[d][1,3]dioxole-5-carboxamide] was 10 to 100 nM.
Turning to `CSc1cc(C)[nH]c(=O)c1CNC(=O)c1cc(-c2ccc(F)cc2)c2c(c1C)OC(C)([C@H]1CC[C@H](N(C)C)CC1)O2` (stereo partly drawn) [Compound 10, 2-(trans-4-(dimethylamino)cyclohexyl)-7-(4-fluorophenyl)-2,4-dimethyl-N-((6-methyl-4-(methylthio)-2-oxo-1,2-dihydropyridin-3-yl)methyl)benzo[d][1,3]dioxole-5-carboxamide], the IC50 is no more than 10 nM.
Still for that read-out and setting: the value for `CSc1cc(C)[nH]c(=O)c1CNC(=O)c1cc(-c2ccc(CN3CCOCC3)cc2)c2c(c1C)OC(C)([C@H]1CC[C@H](N(C)C)CC1)O2` (stereo partly drawn) [Compound 6, 2-(trans-4-(dimethylamino)cyclohexyl)-2,4-dimethyl-N-((6-methyl-4-(methylthio)-2-oxo-1,2-dihydropyridin-3-yl)methyl)-7-(4-(morpholinomethyl)phenyl)benzo[d][1,3]dioxole-5-carboxamide] was no more than 10 nM; that for `CCN(C)[C@H]1CC[C@H](C2(C)Oc3c(-c4ccc(N5C[C@@H](C)O[C@@H](C)C5)nc4)cc(C(=O)NCc4c(SC)cc(C)[nH]c4=O)c(C)c3O2)CC1` (stereo partly drawn) [Compound 111, 7-(6-((2S,6R)-2,6-dimethylmorpholino)pyridin-3-yl)-2-(trans-4-(ethyl(methyl)amino)cyclohexyl)-2,4-dimethyl-N-((6-methyl-4-(methylthio)-2-oxo-1,2-dihydropyridin-3-yl)methyl)benzo[d][1,3]dioxole-5-carboxamide] was no more than 10 nM; that for `CSc1cc(C)[nH]c(=O)c1CNC(=O)c1cc(-c2cnc(N3CCCCC3)nc2)c2c(c1C)OC(C)(C1CCN(CC(F)(F)F)CC1)O2` (centres unmarked) [Compound 39, 2,4-dimethyl-N-((6-methyl-4-(methylthio)-2-oxo-1,2-dihydropyridin-3-yl)methyl)-7-(2-(piperidin-1-yl)pyrimidin-5-yl)-2-(1-(2,2,2-trifluoroethyl)piperidin-4-yl)benzo[d][1,3]dioxole-5-carboxamide] was no more than 10 nM.
Regarding `CSc1cc(C)[nH]c(=O)c1CNC(=O)c1cc(-c2ccc(N3C[C@@H](C)O[C@@H](C)C3)nc2)c2c(c1C)OC(C)(C1CCN(C[C@H](C)O)CC1)O2` (stereo partly drawn) [Compound 40, 7-(6-((2S,6R)-2,6-dimethylmorpholino)pyridin-3-yl)-2-(1-((S)-2-hydroxypropyl)piperidin-4-yl)-2,4-dimethyl-N-((6-methyl-4-(methylthio)-2-oxo-1,2-dihydropyridin-3-yl)methyl)benzo[d][1,3]dioxole-5-carboxamide], the IC50 is no more than 10 nM.
Take `COCCN(C)[C@H]1CC[C@H](C2(C)Oc3c(-c4ccc(N5C[C@@H](C)O[C@@H](C)C5)nc4)cc(C(=O)NCc4c(SC)cc(C)[nH]c4=O)c(C)c3O2)CC1` (stereo partly drawn) [Compound 24, 7-(6-((2S,6R)-2,6-dimethylmorpholino)pyridin-3-yl)-2-(trans-4-((2-methoxyethyl)(methyl)amino)cyclohexyl)-2,4-dimethyl-N-((6-methyl-4-(methylthio)-2-oxo-1,2-dihydropyridin-3-yl)methyl)benzo[d][1,3]dioxole-5-carboxamide]: the IC50 is no more than 10 nM.
